Assays:
[1] = test system: cutaneous sites of the dorsal region of adult Wistar rats; assay: Local anesthetic activity, intradermal injection in dorsal skin, response to mechanical stimulation; format: in vivo; details: for time of anesthesia compared with lidocaine: doses from 0.5 to 4 μMol/site
Method: Female and male Wistar rats, weighing between 200 and 250 g, they came from Oswaldo Cruz Foundation's Center of Laboratory Animal Raising were used. The procedures involving the animals were examined and approved by Oswaldo Cruz Foundation's Committee of Animal Ethics (CEUA-FIOCRUZ, License number 00085-02). After brief anesthesia by exposure to the atmosphere enriched with […] animals were trichotomized dorsal region, where the […] injections with substances for test were performed; doses varied from 0.5 to 4 μMol/site, and vehicule (NaCl 0.9%) (negative control), the final volume was 50 μl. Each animal took six injections and four animals were used for each tested substance. The application points were mechanically estimulated with a tweezer in order to evaluate the integrity of sensitiveness. The site was considered not to be anesthesized whenever after the mechanical stimulation it was observed a local retraction of the skin, according to what had been previously reported. The evaluations began 10 minutes after intradermal injections had been taken, which continued every five minutes until it was obtained the cutaneous retraction response. The values (average±standard error of the mean, SEM) were expressed in terms of “Time of Anesthesia” in minutes.

[2] = test system: isolated ileum of an experimental animal; assay: Anaphylactic contraction of isolated ileum induced by antigen (ovoalbumin); details: antigen (10 μg/ml), average ±SEM, at least 3 animals; read-out: Stimulation with antigen IC50
Method: Female and male experimental animals were used, weighing between 300 and 400 g, they came from Oswaldo Cruz Foundation's Center of Laboratory Animal Raising. The procedures involving the animals were examined and approved by Oswaldo Cruz Foundation's Committee of Animal Ethics (CEUA-FIOCRUZ, Licenca no. 00085-02). The animals were sensitized through a subcutanous injection with a mixture of 50 μg ovoalbumin and 5 mg Al(OH)3. From fourteen to thirty days after the sensitization, the experimental, animal was sacrificed in a chamber of carbonic gas to have its abdomen open and the location of the ileocecal valve. At this point, the intestine was sectioned and a segment of the small intestine, about 20 cm (equivalent to the ileum) was carefully removed and internally washed with a warmed solution (37° C.) of Tyrode (Composition in mM) (NaCl 137; KCl 2.7; NaH2PO4 0.42; NaHCO3 11.9; MgCl2 0.5; CaCl2 1.8; glucose 5.6) to remove the fecal content. […].
About 3-cm ileum fragments were vertically mounted in 10 ml glass cuvettes, immersed in Tyrode's solution at 37° C., aerated with carbogen (O2, 95% and CO2, 5%) and supplemented with atropine according to the standard procedure. The tissue had one of its ends tied to a rod while the other end was coupled with a transductor after the transference from the rod to the cuvette. The contractions were isotonically registered (basal tension of 1 g) with the support of a transductor of displacement-force connected to a computerized system to capture data. After a 30 minute period of balance, each segment was repeatedly stimulated by histamine (1 μM) until response stabilization. To induce anaphylatic contraction, ileum segments from sensitized experimental animals were stimulated by ovoalbumin (10 μg/ml). […]. The results were presented as a percentage of inhibition calculated in relation to the contractive effect obtained from stimulated and non-treated preparations.
Concentration-response data were adjusted through non-linear regression curves with the assistence of a graphics software (GraphPad Prism, USA). The concentration of an antagonist needed to inhibit the contractive response to inhibit the contractive response after stimulation by histamine or antigen at 50% (IC50) was used to compare the anti-spasmodic potency. The values expressed as an average ± standard error of the mean and statistically analysed through the test of analysis variance (ANOVA), followed by the Newman-Keuls-Student test.

[3] = test system: dorsal subcutaneous tissue of rats; assay: Anaphylactic release of histamine by fragments of dorsal subcutaneous tissue; design: species or system Wistar rats; details: ovoalbumin (300 μg/ml); for IC50: 60 min pre-treatment, read-out: IC50, inhibition of histamine release caused by anaphylatic stimulus
Method: Female and male Wistar rats were used, weighing between 180 and 200 g, they came from Oswaldo Cruz Foundation's Center of Laboratory Animal Raising. The procedures involving the animals were examined and approved by Oswaldo Cruz Foundation's Committee of Animal Ethics (CEUA-FIOCRUZ, Port. 00085-02). The rats were sensitized with a subcutaneous injection containing a mixture of 50 μg ovalbumina plus 5 mg Al(OH)3. Fourteen days after the sensitization the animals were sacrificed in a chamber of CO2, to have their dorsal hypodermis removed which was fragmented into smaller segments of about 3 mm in a Petri dish containing PBS. The fragments were individually transferred to a dish with 48 pools containing 500 μl of Hanks with Ca^++ and Mg^++.
Five experimental groups were studied in quadruplicates:
I. Saline group, negative control, pools where the tissue was neither treated nor stimulated;
II. Ovoalbumin group, positive control, pools where the tissue was not treated but it was stimulated by ovoalbumin (300 μg/ml);
III. JM24-1 group, pools where the tissue was previously treated with JM24-1 before the stimulation with ovoalbumin (300 μg/ml);
IV. JM25-1 group, pools where the tissue was previously treated with JM25-1 before the stimulation with ovoalbumin (300 μg/ml);
V. JMF2-1 group, pools where the tissue was previously treated with JMF2-1 before the stimulation with ovoalbumin (300 μg/ml).
Treated and non-treated pools were kept at 37° C. in a metabolic incubator (atmosphere containing 95% O2 and 5% CO2) for 60 minutes before the antigenic challenge. After the addition of ovoalbumin (300 μg/ml) all the pools were incubated again in a metabolic oven for more than 60 minutes. After removal of tissue for drying and weighing, the culture medium was collected and acidified with perchloric acid 0.4 N being, after centrifugation 150×g for 10 min. stocked at −20° C. until the moment of fluorimetric quantifying of histamine, according to the previous work. The values were shown like nanograms of released histamine by mg of tissue (dry weight).

| SMILES | time of anesthesia compared with lidocaine [1] | IC50 [2] [µM] | inhibition of anaphylactic histamine release, result in words [3] | IC50 [3] [µM] | Time of Anesthesia ([1]; 4 μMol/site intradermal, n=4, average±SEM) [min] |
| --- | --- | --- | --- | --- | --- |
| CCN(CC)CC(=O)Nc1cccc(C)c1C [JM23-1, 2-dyethylamine-2′,3′-acetoxylidide] | significantly inferior | 330 | inactive | – | – |
| CCN(CC)CC(=O)Nc1ccc(C)cc1C [JM24-1, 2-dyethylamine-2′,4′-acetoxylidide] | significantly inferior | 190 ± 40 | concentrations comparable to that of lidocaine | 6.46 | – |
| CCN(CC)CC(=O)Nc1c(C)cccc1C [Lidocaine, 1-(2-(dyethylamine)N-dymethylfenyl)-acetamide, reference compound] | – | 1430 ± 90 | – | 4.5 | 168 ± 3 |

Reference: patent US8163803B2 (Fundação Oswaldo Cruz—FIOCRUZ, priority 2004, dated 2012)
